ChEMBL document CHEMBL1201862, “PubChem BioAssay data set” (2004)
Activity calls are given as the source filed them.

What was measured:
Fatty acid synthase [1] = molecular target: T1, Fatty acid synthase (Homo sapiens, UniProt P49327); test: FAS thioesterase domain inhibitors, dose response, biochemical, kinetic fluorescence intensity (AID 624326); format: functional;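 further: rate of fluorescence rise from hydrolysis of a fluorogenic O-methyl fluorescein ester substrate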
Phospholipase A2 = Phospholipase A2 (Homo sapiens, UniProt P04054); format: functional;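 further: confirmatory dose-response counterscreen on phospholipase A2, testing hits that came from an ultra-high-throughput screen for ATG4B inhibitors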
Phospholipase A2, sequence (P04054 whole entry): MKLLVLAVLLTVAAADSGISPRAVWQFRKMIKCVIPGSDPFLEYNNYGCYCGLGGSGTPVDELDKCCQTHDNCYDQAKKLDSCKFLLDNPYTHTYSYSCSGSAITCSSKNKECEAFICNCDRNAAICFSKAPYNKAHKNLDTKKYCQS

Cysteine protease ATG4B = molecular target: T2, Cysteine protease ATG4B (Homo sapiens, UniProt Q9Y4P1); format: functional;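 further: Fluorescence-based dose-response confirmation assay measuring inhibition of ATG4B activity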
T2 sequence (Q9Y4P1 whole entry): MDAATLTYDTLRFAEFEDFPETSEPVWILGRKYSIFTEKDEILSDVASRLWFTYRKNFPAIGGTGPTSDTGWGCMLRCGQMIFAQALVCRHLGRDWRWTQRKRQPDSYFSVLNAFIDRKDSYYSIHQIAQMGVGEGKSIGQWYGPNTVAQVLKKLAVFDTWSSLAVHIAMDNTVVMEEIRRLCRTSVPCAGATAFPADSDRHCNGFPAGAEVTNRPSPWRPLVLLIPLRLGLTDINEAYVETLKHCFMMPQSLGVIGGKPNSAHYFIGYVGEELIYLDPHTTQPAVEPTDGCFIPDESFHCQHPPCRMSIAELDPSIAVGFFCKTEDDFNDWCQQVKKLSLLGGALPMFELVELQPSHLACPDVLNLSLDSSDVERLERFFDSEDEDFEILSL

Fatty acid synthase [2] = molecular target: T1, Fatty acid synthase; test: FAS thioesterase domain inhibitors, dose response, biochemical, endpoint fluorescence intensity, uHTS hits (AID 624327); format: functional;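 further: fluorescence from hydrolysis of an O-methyl fluorescein acyl ester substrate by the enzyme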
[3] = test system: Streptococcus sp. 'group A'; test: growth inhibition of control SK(-) GAS strain, dose response, counter-screen for streptokinase expression inhibitor project, luminescence, kanamycin, BacTiterGlo, confirmation (AID 1900); format: functional, organism-based
[4] = insulin promoter down-regulators in MIN6 cells, imaging, high-content screening, mouse beta cells (AID 1628); format: functional
[5] = C. albicans growth with fluconazole, confirmation, fluorescence, retest (AID 2467); format: functional, cell-based
[6] = NIH-3T3 fibroblast cytotoxicity, dose response, cytotoxicity control, cell-based, fluorescence, Alamar Blue, secondary assay (AID 2327); format: functional;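 further: NIH-3T3 mouse fibroblasts cultured with fluconazole at 8 µg/mL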
[7] = cytotoxicity in MIN6 insulinoma cells, dose response, cytotoxicity control, cell-based, mouse insulinoma (AID 2122); format: functional;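 further: confirmatory high-throughput counterscreen run to flag cytotoxic compounds; mouse MIN-6 beta cells carrying an insulin promoter eGFP reporter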
Streptococcus = test: Group A Streptococcus viability loss, dose response, counter-screen for streptokinase expression inhibitor project, luminescence, BacTiterGlo (AID 1915); format: functional, organism-based;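 further: potency for reduction of bacterial viability or growth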
[8] = molecular target: T3, Serine/threonine-protein phosphatase (Candida dubliniensis (strain CD36 / CBS 7987 / NCPF 3949 / NRRLY-17841) (Yeast), UniProt B9W6M3); test: calcineurin pathway inhibitors in yeast reporter, dose response, S. cerevisiae, CDRE-lacZ, luminescence, secondary (AID 2388); format: functional, cell-based;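 further: yeast reporter cells carrying a calcineurin-responsive lacZ construct stimulated with calcium chloride; luminescent beta-galactosidase reporter signal in whole cells rather than isolated phosphatase activity; potency for inhibition where a drop in reporter signal means calcineurin blockade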
T3 sequence (B9W6M3 whole entry): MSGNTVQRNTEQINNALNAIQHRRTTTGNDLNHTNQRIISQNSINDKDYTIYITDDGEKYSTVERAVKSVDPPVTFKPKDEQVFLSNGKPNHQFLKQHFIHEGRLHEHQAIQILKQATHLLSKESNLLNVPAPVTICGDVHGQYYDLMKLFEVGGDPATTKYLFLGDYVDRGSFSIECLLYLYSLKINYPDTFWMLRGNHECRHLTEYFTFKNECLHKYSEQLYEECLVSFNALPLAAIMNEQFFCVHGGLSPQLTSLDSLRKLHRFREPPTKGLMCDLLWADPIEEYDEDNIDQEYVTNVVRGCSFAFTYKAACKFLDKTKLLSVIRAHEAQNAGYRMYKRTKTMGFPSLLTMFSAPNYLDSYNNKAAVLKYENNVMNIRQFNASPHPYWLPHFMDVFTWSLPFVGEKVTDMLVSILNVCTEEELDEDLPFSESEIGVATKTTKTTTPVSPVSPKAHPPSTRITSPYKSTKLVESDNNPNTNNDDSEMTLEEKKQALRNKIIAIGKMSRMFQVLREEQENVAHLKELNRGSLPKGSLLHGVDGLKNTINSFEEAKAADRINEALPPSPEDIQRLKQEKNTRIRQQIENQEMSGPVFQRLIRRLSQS

[9] = molecular target: ATP-dependent molecular chaperone HSP82 (Candida albicans (strain WO-1) (Yeast), UniProt C4YTQ8); test: loss of DOC-induced GRE-beta-galactosidase reporter signal, dose response, Hsp90 inhibitor project, S. cerevisiae, luminescence (AID 2400); format: functional, cell-based;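 further: beta-galactosidase luminescence from glucocorticoid response element reporter as proxy for Hsp90 function; inhibitor potency where signal loss means Hsp90 inhibition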
ATP-dependent molecular chaperone HSP82, sequence (C4YTQ8 whole entry): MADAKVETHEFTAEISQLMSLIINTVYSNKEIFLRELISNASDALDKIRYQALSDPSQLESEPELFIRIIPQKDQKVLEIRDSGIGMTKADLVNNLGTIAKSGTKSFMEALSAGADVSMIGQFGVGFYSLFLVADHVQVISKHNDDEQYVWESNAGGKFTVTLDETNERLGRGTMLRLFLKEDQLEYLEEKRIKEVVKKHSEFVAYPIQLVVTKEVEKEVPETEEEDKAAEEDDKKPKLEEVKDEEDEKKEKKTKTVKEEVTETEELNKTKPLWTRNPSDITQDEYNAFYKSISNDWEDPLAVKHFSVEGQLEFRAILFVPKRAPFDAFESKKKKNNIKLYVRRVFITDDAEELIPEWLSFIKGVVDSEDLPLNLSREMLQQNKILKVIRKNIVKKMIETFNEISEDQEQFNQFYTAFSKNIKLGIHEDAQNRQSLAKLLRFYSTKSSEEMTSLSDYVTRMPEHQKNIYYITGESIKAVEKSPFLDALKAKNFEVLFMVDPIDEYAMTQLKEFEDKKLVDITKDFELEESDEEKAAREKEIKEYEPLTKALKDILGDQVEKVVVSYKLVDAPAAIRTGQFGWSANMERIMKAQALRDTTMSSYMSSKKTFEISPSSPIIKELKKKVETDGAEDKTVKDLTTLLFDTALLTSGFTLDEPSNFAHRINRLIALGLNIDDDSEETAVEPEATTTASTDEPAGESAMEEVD

[10] = molecular target: T4, High affinity choline transporter 1 (Homo sapiens, UniProt Q9GZV3); test: CHT inhibitors, dose response, cell-based, 5-point CRC, membrane potential dye (AID 504840); format: functional
T4 sequence (Q9GZV3 whole entry): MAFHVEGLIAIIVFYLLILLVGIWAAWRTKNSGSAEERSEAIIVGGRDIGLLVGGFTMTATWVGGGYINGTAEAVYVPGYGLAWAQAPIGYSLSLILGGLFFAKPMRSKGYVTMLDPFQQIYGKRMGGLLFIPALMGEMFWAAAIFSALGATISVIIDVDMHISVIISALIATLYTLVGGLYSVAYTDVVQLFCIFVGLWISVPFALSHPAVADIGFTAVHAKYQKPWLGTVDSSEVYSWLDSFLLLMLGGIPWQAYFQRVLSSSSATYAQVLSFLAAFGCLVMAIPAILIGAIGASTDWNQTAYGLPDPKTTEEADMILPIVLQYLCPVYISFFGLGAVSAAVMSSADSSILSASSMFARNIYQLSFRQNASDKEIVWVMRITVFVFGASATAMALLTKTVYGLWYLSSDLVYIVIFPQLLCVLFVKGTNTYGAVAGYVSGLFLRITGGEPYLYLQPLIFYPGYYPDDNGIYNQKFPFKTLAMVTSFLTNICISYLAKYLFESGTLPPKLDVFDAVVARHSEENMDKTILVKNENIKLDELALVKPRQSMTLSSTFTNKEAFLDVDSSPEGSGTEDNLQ

[11] = molecular target: Ras and Rab interactor 1/Tyrosine-protein kinase ABL1 (Homo sapiens, UniProt P00519+Q13671); format: functional;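 further: biochemical TR-FRET dose-response test measuring inhibition of binding between Rin1 and Abl proteins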
Ras and Rab interactor 1/Tyrosine-protein kinase ABL1, sequence (P00519 whole entry): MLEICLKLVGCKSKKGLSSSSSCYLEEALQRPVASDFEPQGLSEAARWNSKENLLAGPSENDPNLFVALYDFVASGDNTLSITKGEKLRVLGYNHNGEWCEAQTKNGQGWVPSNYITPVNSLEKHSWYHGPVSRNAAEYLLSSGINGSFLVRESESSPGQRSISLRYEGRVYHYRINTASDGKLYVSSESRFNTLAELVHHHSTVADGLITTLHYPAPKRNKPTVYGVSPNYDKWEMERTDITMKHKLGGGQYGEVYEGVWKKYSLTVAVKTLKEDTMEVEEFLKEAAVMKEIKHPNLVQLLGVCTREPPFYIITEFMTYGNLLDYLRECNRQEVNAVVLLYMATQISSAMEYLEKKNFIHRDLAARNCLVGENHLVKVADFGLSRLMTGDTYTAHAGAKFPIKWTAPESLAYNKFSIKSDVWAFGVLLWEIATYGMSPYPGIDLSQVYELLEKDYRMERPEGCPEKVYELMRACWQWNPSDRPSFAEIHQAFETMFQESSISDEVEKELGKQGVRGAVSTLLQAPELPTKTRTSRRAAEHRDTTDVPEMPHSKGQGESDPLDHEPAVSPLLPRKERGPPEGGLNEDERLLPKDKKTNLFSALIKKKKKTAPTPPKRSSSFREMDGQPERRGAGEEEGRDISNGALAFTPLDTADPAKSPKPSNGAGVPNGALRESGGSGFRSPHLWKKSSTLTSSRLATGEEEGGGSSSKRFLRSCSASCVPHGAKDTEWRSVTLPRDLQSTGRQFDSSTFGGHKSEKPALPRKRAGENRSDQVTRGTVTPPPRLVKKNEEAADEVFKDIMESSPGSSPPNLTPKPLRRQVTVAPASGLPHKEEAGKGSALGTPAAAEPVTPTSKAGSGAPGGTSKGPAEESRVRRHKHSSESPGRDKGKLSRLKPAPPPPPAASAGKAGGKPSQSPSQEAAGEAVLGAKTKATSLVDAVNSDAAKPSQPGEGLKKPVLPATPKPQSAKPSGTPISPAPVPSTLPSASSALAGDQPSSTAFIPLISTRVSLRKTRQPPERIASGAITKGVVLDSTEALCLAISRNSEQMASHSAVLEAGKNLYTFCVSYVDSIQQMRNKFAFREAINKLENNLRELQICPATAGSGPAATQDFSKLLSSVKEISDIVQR
Ras and Rab interactor 1/Tyrosine-protein kinase ABL1, sequence (Q13671 whole entry): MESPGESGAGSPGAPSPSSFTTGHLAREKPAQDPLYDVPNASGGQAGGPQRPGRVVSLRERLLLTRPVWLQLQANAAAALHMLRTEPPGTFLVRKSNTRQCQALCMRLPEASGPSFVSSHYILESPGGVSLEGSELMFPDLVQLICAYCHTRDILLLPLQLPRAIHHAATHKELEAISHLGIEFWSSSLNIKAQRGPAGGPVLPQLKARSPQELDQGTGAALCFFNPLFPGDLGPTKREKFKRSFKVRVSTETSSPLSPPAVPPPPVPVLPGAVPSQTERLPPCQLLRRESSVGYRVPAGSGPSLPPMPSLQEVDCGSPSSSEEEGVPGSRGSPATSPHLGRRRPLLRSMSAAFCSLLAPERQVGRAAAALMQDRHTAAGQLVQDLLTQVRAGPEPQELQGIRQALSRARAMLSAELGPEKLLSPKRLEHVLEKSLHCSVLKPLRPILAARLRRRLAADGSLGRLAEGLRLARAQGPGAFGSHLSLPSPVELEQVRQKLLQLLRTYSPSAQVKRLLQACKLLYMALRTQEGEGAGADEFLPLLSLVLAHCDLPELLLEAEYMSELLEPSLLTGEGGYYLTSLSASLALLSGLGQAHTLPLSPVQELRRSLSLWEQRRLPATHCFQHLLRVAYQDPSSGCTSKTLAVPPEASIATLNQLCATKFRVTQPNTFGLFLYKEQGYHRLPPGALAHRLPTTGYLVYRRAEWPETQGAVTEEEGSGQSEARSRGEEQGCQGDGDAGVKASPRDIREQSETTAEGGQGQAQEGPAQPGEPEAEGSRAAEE

[12] = Vero cell cytotoxicity, cytotoxicity control for M. tuberculosis inhibitor project, purified and synthesized samples, set 3 (AID 504684); format: functional
[13] = molecular target: T4, High affinity choline transporter 1; test: CHT inhibitors, dose response, cell-based, 10-point CRC, membrane potential dye (AID 588401); format: functional;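 further: membrane potential dye fluorescence of choline-evoked depolarization via CHT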
BJ [14] = test: cytotoxicity toward BJ-TERT fibroblasts, dose response, cell-based, RAS-independent, luminescence (AID 1933); format: functional; details: Homo sapiens
[15] = Luminescence Cell-Based Dose Confirmation HTS to Identify Inhibitors of Platelet Dense Granule Release. [Related pubchem assays: 1663 (Primary HTS), 1678 (Summary of Project)]; format: functional
BJ [16] = test: cytotoxicity toward BJ-TERT-LT-ST fibroblasts, dose response, cell-based, RAS-independent, luminescence (AID 1935); format: functional; details: Homo sapiens;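 further: BJ fibroblasts immortalized with TERT plus LT and ST oncogenes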
BJ [17] = test: cells; format: functional, cell-based; details: Homo sapiens
BJ [18] = test: cytotoxicity toward Ras-transformed BJeLR fibroblasts, dose response, cell-based, alamar blue fluorescence, cherrypicked samples (AID 2631); format: functional; details: Homo sapiens;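 further: confirmatory dose-response assay in RAS-dependent BJ fibroblasts engineered with TERT, LT and ST, with cytotoxicity read by fluorescence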
[19] = cytotoxicity toward DRD oncogenic fibroblasts, dose response, cell-based, non-viral oncogenic, luminescence (AID 1934); format: functional; details: Homo sapiens
[20] = molecular target: DNA (cytosine-5)-methyltransferase 1 (Homo sapiens, UniProt P26358); test: DNMT1 methyltransferase inhibitors, confirmation, biochemical, fluorescent molecular beacon (AID 602386); format: functional
[21] = Luminescence Cell-Based Dose Retest to Confirm Inhibitors of Cancer Stem Cells. [Related pubchem assays (depositor defined):AID2717, AID2721]; format: functional; details: Homo sapiens
[22] = molecular target: Luciferin 4-monooxygenase (Photinus pyralis, UniProt P08659); test: firefly luciferase enzyme inhibitors, dose response, biochemical, luminescence (AID 1891)
[23] = miR-122 activators in hepatoma reporter cells, dose response, cell-based, Huh7 psiCHECK-miR122, Renilla luciferase, cherry-picked (AID 651956); format: functional;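 further: huh7 hepatoma cells stably carrying a psiCHECK-2 miR-122 sensor plasmid; renilla luciferase signal reporting endogenous miR-122 activity after 48 h compound exposure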
[24] = inhibitors of PGC1a acetylation in cells, dose response, cell-based, cherry-picked samples (AID 720514); format: functional;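 further: potency may reflect raised or lowered acetylation signal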
Interleukin-8 = molecular target: T5, Interleukin-8 (Homo sapiens, UniProt P10145); test: Dose Response confirmation of uHTS small molecule hits for cystic fibrosis induced NFkb Inhibitors in a PAF-induced IL8 counterscreen.; format: functional; details: read-out: IC50_Mean
T5 sequence (P10145 whole entry): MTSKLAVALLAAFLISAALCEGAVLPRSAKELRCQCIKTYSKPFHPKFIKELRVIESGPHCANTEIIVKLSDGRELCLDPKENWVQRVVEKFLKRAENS

[25] = molecular target: T6, Dual specificity protein phosphatase 6 (Rattus norvegicus, UniProt Q64346); test: MKP-3 phosphatase inhibitors, primary screen, biochemical, rat enzyme, in vitro (AID 425)
T6 sequence (Q64346 whole entry): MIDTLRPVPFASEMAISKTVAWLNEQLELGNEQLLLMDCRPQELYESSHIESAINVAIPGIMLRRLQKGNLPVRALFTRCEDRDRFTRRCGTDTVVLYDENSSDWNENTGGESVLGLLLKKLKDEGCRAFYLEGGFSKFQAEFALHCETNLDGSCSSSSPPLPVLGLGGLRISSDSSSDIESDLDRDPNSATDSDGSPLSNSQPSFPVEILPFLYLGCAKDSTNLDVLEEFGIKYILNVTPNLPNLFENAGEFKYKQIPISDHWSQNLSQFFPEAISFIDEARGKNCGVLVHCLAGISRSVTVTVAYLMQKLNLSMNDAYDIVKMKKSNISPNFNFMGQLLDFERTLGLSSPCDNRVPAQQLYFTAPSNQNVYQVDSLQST

[26] = molecular target: Tyrosine-protein phosphatase non-receptor type 11 (Homo sapiens, UniProt Q06124); test: SHP2 phosphatase inhibition, dose response, selectivity assay for STEP inhibitor project, biochemical (AID 602367); format: functional; details: read-out: IC50_Mean
Tyrosine-protein phosphatase non-receptor type 11, sequence (Q06124 whole entry): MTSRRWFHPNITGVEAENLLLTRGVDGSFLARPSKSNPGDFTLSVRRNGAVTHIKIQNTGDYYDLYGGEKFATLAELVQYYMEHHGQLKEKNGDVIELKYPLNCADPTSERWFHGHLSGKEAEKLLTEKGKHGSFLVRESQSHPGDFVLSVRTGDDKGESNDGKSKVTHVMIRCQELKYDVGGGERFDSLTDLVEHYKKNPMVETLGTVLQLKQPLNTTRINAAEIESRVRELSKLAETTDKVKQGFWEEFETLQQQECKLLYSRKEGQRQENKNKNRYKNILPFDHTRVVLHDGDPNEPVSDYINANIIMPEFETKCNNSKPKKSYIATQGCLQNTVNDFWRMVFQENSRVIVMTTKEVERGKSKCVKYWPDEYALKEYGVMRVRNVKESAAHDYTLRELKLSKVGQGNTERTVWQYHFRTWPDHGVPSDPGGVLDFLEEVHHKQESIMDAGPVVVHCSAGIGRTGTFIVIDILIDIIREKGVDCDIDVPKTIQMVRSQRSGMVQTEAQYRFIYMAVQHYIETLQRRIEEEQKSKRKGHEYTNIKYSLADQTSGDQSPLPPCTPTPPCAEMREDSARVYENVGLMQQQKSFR

[27] = molecular target: T7, Dual specificity protein phosphatase 3 (Homo sapiens, UniProt P51452); test: VHR1 phosphatase inhibitors, primary screen, biochemical, absorbance, uHTS (AID 1654)
T7 sequence (P51452 whole entry): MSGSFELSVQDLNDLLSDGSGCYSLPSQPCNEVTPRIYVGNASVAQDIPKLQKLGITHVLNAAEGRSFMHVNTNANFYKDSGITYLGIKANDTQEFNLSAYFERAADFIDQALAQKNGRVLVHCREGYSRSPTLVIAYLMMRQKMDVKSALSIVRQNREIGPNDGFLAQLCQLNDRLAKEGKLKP

[28] = molecular target: T7, Dual specificity protein phosphatase 3; test: VHR phosphatase inhibition, dose response, selectivity assay for STEP inhibitor project, biochemical (AID 602374); format: functional; details: read-out: IC50_Mean
[29] = molecular target: T7, Dual specificity protein phosphatase 3; test: VHR1 phosphatase inhibitors, biochemical (AID 1878)
[30] = molecular target: Tyrosine-protein phosphatase non-receptor type 5 (Homo sapiens, UniProt P54829); test: STEP phosphatase inhibitors, confirmation, biochemical, fluorescence intensity, uHTS hits (AID 602372); format: functional; details: read-out: IC50_Mean
Tyrosine-protein phosphatase non-receptor type 5, sequence (P54829 whole entry): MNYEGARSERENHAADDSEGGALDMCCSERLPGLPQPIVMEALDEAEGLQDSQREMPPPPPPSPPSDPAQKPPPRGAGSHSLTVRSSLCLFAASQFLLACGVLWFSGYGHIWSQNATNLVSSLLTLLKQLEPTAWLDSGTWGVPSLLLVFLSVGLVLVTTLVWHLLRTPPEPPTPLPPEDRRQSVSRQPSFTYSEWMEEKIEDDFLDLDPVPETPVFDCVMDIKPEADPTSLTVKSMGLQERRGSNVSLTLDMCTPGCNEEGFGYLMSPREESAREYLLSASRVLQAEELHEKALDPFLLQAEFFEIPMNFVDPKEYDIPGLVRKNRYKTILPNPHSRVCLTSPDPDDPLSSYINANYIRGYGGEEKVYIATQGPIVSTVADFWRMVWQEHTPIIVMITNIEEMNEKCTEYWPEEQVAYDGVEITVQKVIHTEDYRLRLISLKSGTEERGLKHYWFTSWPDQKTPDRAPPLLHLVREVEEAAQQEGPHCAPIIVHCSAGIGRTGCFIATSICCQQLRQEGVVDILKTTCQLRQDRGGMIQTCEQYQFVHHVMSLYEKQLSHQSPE

Mu-type opioid receptor = Mu-type opioid receptor (Homo sapiens, UniProt P35372); format: functional, cell-based;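 further: U2OS cells with beta-arrestin recruitment to OPRM1 by beta-gal complementation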
Mu-type opioid receptor, sequence (P35372 whole entry): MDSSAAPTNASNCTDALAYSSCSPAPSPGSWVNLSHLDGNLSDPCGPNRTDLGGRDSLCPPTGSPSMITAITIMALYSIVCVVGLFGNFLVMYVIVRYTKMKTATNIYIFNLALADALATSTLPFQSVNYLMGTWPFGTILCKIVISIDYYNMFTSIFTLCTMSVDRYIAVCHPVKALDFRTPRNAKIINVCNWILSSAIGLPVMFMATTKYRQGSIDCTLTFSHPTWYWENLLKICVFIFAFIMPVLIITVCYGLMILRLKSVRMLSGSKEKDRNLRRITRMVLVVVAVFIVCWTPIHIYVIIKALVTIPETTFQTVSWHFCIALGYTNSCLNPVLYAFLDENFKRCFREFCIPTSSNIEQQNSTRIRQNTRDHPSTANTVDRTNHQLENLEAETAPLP

[31] = molecular target: 5-hydroxytryptamine receptor 2A (Mus musculus, UniProt P35363); format: functional, cell-based;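 further: CHO-K1 cells with tagged receptor and beta-arrestin; agonist potency measured as compound-induced activation of the receptor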
5-hydroxytryptamine receptor 2A, sequence (P35363 whole entry): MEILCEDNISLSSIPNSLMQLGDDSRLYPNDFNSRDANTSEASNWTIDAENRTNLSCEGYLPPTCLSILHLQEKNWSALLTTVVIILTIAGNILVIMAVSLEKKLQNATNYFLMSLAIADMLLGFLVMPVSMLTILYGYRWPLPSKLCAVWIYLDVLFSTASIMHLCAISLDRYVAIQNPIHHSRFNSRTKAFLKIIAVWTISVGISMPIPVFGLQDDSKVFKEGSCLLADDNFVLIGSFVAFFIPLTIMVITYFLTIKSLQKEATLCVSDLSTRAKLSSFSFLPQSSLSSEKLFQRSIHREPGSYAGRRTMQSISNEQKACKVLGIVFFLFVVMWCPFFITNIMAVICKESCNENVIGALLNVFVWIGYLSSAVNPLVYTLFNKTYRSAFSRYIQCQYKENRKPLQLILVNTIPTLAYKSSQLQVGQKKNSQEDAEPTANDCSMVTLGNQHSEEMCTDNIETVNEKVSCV

COc1cc(C(=O)N/N=C/c2coc3ccc(Cl)cc3c2=O)ccc1O
IC50 (Fatty acid synthase [1]): 7.45 µM (active)
IC50 (Phospholipase A2): 16.2 µM (active)
IC50 (Cysteine protease ATG4B): 3.35 µM (active)
IC50 (Fatty acid synthase [2]): 18.5 µM (active)

CC1(C)COCN1S(=O)(=O)c1ccc(C(=O)Nc2nnc(-c3ccc(Cl)s3)o2)cc1
EC50 [3]: 0.691 µM (active)
IC50 [4]: 3.39 µM (active)
EC50 [5]: 0.308 µM (active)
EC50 [6]: 68.5 µM (active)
IC50 [7]: 3.33 µM (active)
EC50 (Streptococcus): 0.841 µM (active)
EC50 [8]: > 180 µM (inactive)
EC50 [9]: 22.2 µM (active)
IC50 [10]: 13.8 µM (active)

Cc1ccc(C2N(c3cccc(Cl)c3)C(=O)N3CCCN23)cc1 (centres undefined)
IC50 [11]: 11.1 µM (inactive)

Cc1ccc(NC(=O)C2C3/C=C\CCCCC32)cc1C (centres undefined)
CC50 [12]: > 100 µM (active)

CC(=O)OC1CC2(C)/C(=N\O)CCC2C2CCc3cc(O)ccc3C12 (centres undefined)
IC50 [13]: 0.605 µM (active)
IC50 [10]: 0.953 µM (active)

COC(=O)c1c(NC(=O)C2Cc3ccccc3C(=O)O2)sc2c1CCCC2 (centres undefined)
IC50 (Phospholipase A2): 1.02 µM (active)
IC50 (Cysteine protease ATG4B): 1.62 µM (active)

CCCCC[C@H](O)/C=C/[C@@H]1[C@@H](C/C=C\CCCC(=O)O)[C@@H](O)C[C@H]1O [DINOPROST TROMETHAMINE]
IC50 [13]: 2.77 µM (active)
IC50 [10]: 2.94 µM (active)

O=C(Oc1ccc(-c2nc(-c3ccccn3)no2)cc1)c1ccccc1
EC50 (BJ [14]): 4.55 µM (active)
EC50 [15]: 0.475 µM (active)
EC50 (BJ [16]): 16.8 µM (active)
EC50 (BJ [17]): 3.19 µM (active)
EC50 (BJ [18]): > 133 µM (inactive)
EC50 [19]: 3.96 µM (active)
IC50 [20]: > 99 µM (inactive)
AC50 [21]: 2.63 µM (active)
EC50 [22]: 0.421 µM (active)

Cc1ccc(S(=O)(=O)N2CCC(C(=O)NCc3ccccc3Cl)CC2)cc1
IC50 (Phospholipase A2): 9.46 µM (active)
IC50 (Cysteine protease ATG4B): 17.5 µM (active)

Cc1ccc2c(c1)[C@@H]1CN(C)CC[C@@H]1N2C(=O)Nc1cccc(C(F)(F)F)c1
IC50 [13]: 6.31 µM (active)
IC50 [10]: 8.23 µM (active)

COc1ccc(C#Cc2ccc3c(c2)O[C@H](CN(C)C(=O)CN2CCOCC2)[C@H](C)CN([C@H](C)CO)S3(=O)=O)cc1
AC50 [23]: 12.3 µM (active)

CC[C@]12c3[nH]c4ccc(OC)cc4c3CCN1C(=O)C(CC(=O)NCC13C[C@H]4C[C@@H](C1)C[C@@H](C3)C4)C[C@@H]2C(=O)N1CCN(C(=O)C2CC2)CC1 (some centres undefined)
IC50 [11]: 12.9 µM (inactive)

Nc1ncnc(NCc2ccc(F)cc2)c1[N+](=O)[O-]
AC50 [24]: 3.1 µM (active)
IC50 (Interleukin-8): > 79 µM (inactive)

COC(=O)Nc1sc2c(c1C(N)=O)CCC(C)C2 (centres undefined)
IC50 [25]: > 158 µM (not active)
IC50 [26]: 1.81 µM (active)
IC50 [27]: 1.9 µM (active)
IC50 [28]: 0.312 µM (active)
IC50 [29]: 3.56 µM (active)
IC50 [30]: 4.65 µM (active)

Cc1ccc(NC(=O)c2ccc3nc(N4CCOCC4)sc3c2)c(Cl)c1
IC50 [26]: 1.97 µM (active)
IC50 [28]: 0.804 µM (active)
IC50 [30]: 17.2 µM (active)

CNCC(=O)c1ccc(O)c(O)c1 [ADRENALONE]
EC50 (Mu-type opioid receptor): 92.4 µM (inactive)
EC50 [31]: 4.04 µM (active)
